Assays:
H1355 = assay: MTT viability assay, H1355; type: cell-based, human; settings: mean ± span, 48 h treatment, cell line with KRAS mutation
Procedure: (§1) NSCLC cell lines were obtained from the Hamon Center for Therapeutic Oncology Research (UT Southwestern Medical Center). IMR-90 human lung fibroblasts were from ATCC (CC-186). All cell lines were maintained and treated in RPMI medium (Cytiva (Shanghai, China), #SH30027), supplemented with 10% heat-inactivated FBS (Millipore Sigma (Darmstadt, Germany), F0394).
(§2) 5000–10,000 cells/0.1 mL/well were seeded in 96-well plates to achieve 70% confluence after 24 h. All drug stock solutions were prepared fresh in DMSO at a concentration of 10 mM. The day after cell plating, we added 0.1 mL of medium containing the appropriate drug dilutions. After 48 h of treatment, 10 μL of MTT solution (5 mg/mL) was added to each well. After 4 h incubation, the medium was aspirated, and the formazan salts dissolved in 200 μL DMSO/well for 10 min at 37 °C. The absorbance was read at 570 nm (OD 570 nm). Data are represented as mean ± SD of two independent experiments.
(§3) Statistical and data analysis was performed using GraphPad Prism (v10). IC50 values were calculated using a three-parameter non-linear regression model with log(inhibitor) vs. response. For the TxrR activity statistics, the groups were compared using a two-way ANOVA followed by Dunnett’s multiple comparisons with alpha = 0.05. The correlation between IC50 values and TxrR activity was achieved using Pearson correlation with alpha = 0.05.

H460 = assay: MTT viability assay, H460; type: cell-based, human; settings: mean ± span, 48 h treatment, cell line with KRAS mutation
Procedure: as §1, §2, §3

A549 = assay: MTT viability assay, A549; type: cell-based, human; settings: mean ± span, 48 h treatment, cell line with KRAS mutation
Procedure: as §1, §2, §3

[1] = tested on: human NSCLC cell lines without KRAS mutations; assay: MTT assay, average across NSCLC cell lines without KRAS mutations; type: cell-based; settings: average across cell lines without KRAS mutations (H522, H661, H1395, H1993), 48 h, read-out: IC50 * averaged values
Procedure: as §1, §2, §3

H1993 = assay: MTT viability assay, H1993; type: cell-based, human; settings: mean ± span, 48 h treatment, cell line without KRAS mutation
Procedure: as §1, §2, §3

H661 = assay: MTT viability assay, H661; type: cell-based, human; settings: mean ± span, 48 h treatment, cell line without KRAS mutation
Procedure: as §1, §2, §3

[2] = Solution stability by UV-visible spectra over time; type: physicochemical; settings: for stability in solution: UV-visible spectra over time, DMSO, methanol, PBS buffered solutions
Procedure: Stability studies were led by acquiring UV−visible spectra of 100 µM DMSO or methanol solutions of compounds 1∓8 over time (Figures S19–S29 in Supplementary Materials). […] The stability of NHC-AuX3 complexes (with X = Cl, compounds 1 and 2, with X = Br, compounds 5 and 6) was affected by the nature of both the substituents on the imidazolyl ligand and of the halide, showing a small decrease of the UV bands maxima in an hour. By analyzing the spectral data of compounds 1 and 2, a percent concentration reduction of about 4–5% was estimated within an hour, grading them eligible for biological tests. The partial instability may be attributed to the formation of cationic bis-carbeneAuCl2 species (Equation (1)), with the [bis-carbeneAuX2]^+ and the respective AuX2^−; these ions were actually detected as positive and negative ions in the ESI-MS spectra (see Figures S12 and S13). […] Additionally, the (+)ESI MS spectrum of the acetonitrile solution of compound 6 is particularly rich in positive ions (Figure S16). As concerns the mono-/bis-carbene formation, it is likely initiated by the large trans effect of the carbene ligands, which induces the chemical lability on the trans halide, triggers […], the formation of bis-carbeneAu(III) species, and AuX2^− or AuX4^− anions:2[NHC-AuX3] ⇔ [[(NHC)2AuX2] [AuX2^−] + 2X(1) […]
The stability of the samples 1-8 in DMSO solution was assayed by UV-visible spectroscopy. Spectra were acquired using the Shimadzu UV-2700i spectrophotometer, equipped with the Shimadzu CPS-100 Peltier, at 293 K. Unless diversely specified, 100 µM DMSO solutions of the 1-8 compounds were prepared and spectra were acquired each 10 minutes for a total of 60 minutes. The spectra obtained are reported as following.
Figure S19. UV-Visible Spectra acquired for complex 1.
Figure S20. UV-Visible Spectra acquired for complex 2. […]

HCC-44 = assay: MTT viability assay, HCC-44; type: cell-based, human; settings: mean ± span, 48 h treatment, cell line with KRAS mutation
Procedure: as §1, §2, §3

[3] = tested on: human NSCLC cell lines with KRAS mutations; assay: MTT assay, average across NSCLC cell lines with KRAS mutations; type: cell-based; settings: 48 h, read-out: IC50 * averaged values
Procedure: as §1, §2, §3

[4] = tested on: TrxR in A549 cell lysates; assay: Thioredoxin reductase activity in lysates of treated A549 cells; type: cell-based, human; settings: for TrxR activity reduction / inhibition: A549, 24 h treatment, stated for both cell lines; for Mean Diff. TrxR activity vs. veh: A549 lysate, 24 h treatment at 5 μM
Procedure: (§4) The enzymatic activity of TrxR in the A549 and H522 cell lysates was measured using the TrxR assay Kit (Abcam ab83463) following the manufacturer’s instructions. This kit is based on the TxrR-mediated reduction of the colorless DTNB into TNB2—(yellow). Briefly, cells were plated to reach 70% confluence on a 100-mm dish in one day. They were treated with 5 μM of the gold compounds or the equivalent quantity of DMSO for 24 h. Then, cells were washed in PBS 1X, detached, and lysed in 100 μL of cold TrxR assay buffer supplemented with the Proteinase Inhibitor Cocktail. 20 μg and 40 μg of total proteins were used for the A549 and the H522, respectively. The DTNB substrate was added to samples with or without TrxR inhibitor (provided with the kit) in 96-well plates. The OD412 was measured soon after the substrate addition (A1) and then after 25, 60, 90, and 110 min (An) at 25 °C using a FLUOstar Omega Microplate Reader (BGM Labtech, Chicago, IL, USA). Data analysis was performed following the manufacturer’s instructions. The OD of TNB2, generated by TrxR in every condition, is:ΔA412 nm = (AnAB − AnINH) − (AB − A1INH) where AB is the assay buffer, and INH is the inhibitor. The TrxR activity is:(2) ΔB/Tn−T1×mg of protein lysate×sample dilution factor=(nmol/min)/mg=mU/mg where ΔB is the TNB amount calculated applying ΔA412 nm to TNB standard curve (in nmol), T1 is the time of the first reading (A1AB, and A1INH) (in min), Tn is the time of the second reading (AnAB and AnINH) (in min). The residual TxrR activity (%) was calculated by normalizing the TxrR activity for each compound with the matching vehicle values at every n time point.
as §3

H1792 = assay: MTT viability assay, H1792; type: cell-based, human; settings: mean ± span, 48 h treatment, cell line with KRAS mutation
Procedure: as §1, §2, §3

H522 = assay: MTT viability assay, H522; type: cell-based, human; settings: mean ± span, 48 h treatment, cell line without KRAS mutation
Procedure: as §1, §2, §3

H1395 = assay: MTT viability assay, H1395; type: cell-based, human; settings: mean ± span, 48 h treatment, cell line without KRAS mutation
Procedure: as §1, §2, §3

[5] = tested on: TrxR in H522 cell lysates; assay: Thioredoxin reductase activity in lysates of treated H522 cells; type: cell-based, human; settings: for TrxR activity reduction / inhibition: H522, 24 h treatment, stated for both cell lines; for Mean Diff. TrxR activity vs. veh: H522 lysate, 24 h treatment at 5 μM
Procedure: as §4, §3

IC50 (H1355)	IC50 (H460)	IC50 (A549)	IC50 (H1993)	IC50 (H661)	IC50 (HCC-44)	IC50 (H1792)	IC50 (H522)	IC50 (H1395)	SMILES	IC50 [1]	IC50 [3]	TrxR activity reduction / inhibition [4]	Mean Diff. TrxR activity vs. veh ([4]; reading at 25 min)	Mean Diff. TrxR activity vs. veh ([4]; reading at 60 min)	Mean Diff. TrxR activity vs. veh ([4]; reading at 90 min)	Mean Diff. TrxR activity vs. veh ([4]; reading at 110 min)	TrxR activity reduction / inhibition [5]	Mean Diff. TrxR activity vs. veh ([5]; reading at 25 min)	Mean Diff. TrxR activity vs. veh ([5]; reading at 60 min)	Mean Diff. TrxR activity vs. veh ([5]; reading at 90 min)	other results
41 ± 0.33 µM	52 ± 1.2 µM	> 100 µM	37 ± 1.3 µM	47 ± 1.1 µM	45 ± 0.25 µM	60 ± 1.4 µM	75 ± 0.89 µM	47 ± 0.4 µM	Cn1cc[n+](C)[c]1[Au-]([Cl])([Cl])[Cl] [Compound 1]	52 µM	62 µM	20–30%	−16.73%	−13.1%	−26.55%	−32.38%	20–30%	15.84%	−8.894%	−20.1%	percent concentration reduction estimated from UV spectra ([2]; 100 µM solution, within an hour): 4–5%; Mean Diff. TrxR activity vs. veh ([5]; reading at 110 min): −23.89%
12 ± 0.72 µM	> 100 µM	49 ± 0.33 µM	70 ± 1.6 µM	42 ± 1.7 µM	32 ± 1.6 µM	> 100 µM	52 ± 0.37 µM	49 ± 0.11 µM	Cn1cc[n+](C)[c]1[Au-]([Br])([Br])[Br] [Compound 5]	53 µM	59 µM	30–40%	−11.58%	−29.11%	−31.74%	−33.68%	30–40%	−35.55%	−39.68%	−41.1%	stability in solution [2]: least stable in solution; Mean Diff. TrxR activity vs. veh ([5]; reading at 110 min): −45.26%
59 ± 1.7 µM	37 ± 1.8 µM	13 ± 1.03 µM	5.6 ± 0.76 µM	26 ± 1.5 µM	19 ± 1.4 µM	15 ± 1.1 µM	55 ± 1.9 µM	62 ± 2.4 µM	C[n+]1ccn(Cc2ccccc2)[c]1[Au-]([Br])([Br])[Br] [Compound 6]	37 µM	29 µM	30–40%	−17.37%	−2.183%	−31.09%	−38.86%	30–40%	−31.68%	−37.22%	−39.82%	stability in solution [2]: least stable in solution; Mean Diff. TrxR activity vs. veh ([5]; reading at 110 min): −46.06%

Source: article PMC11435220, “Anticancer Activity of Imidazolyl Gold(I/III) Compounds in Non-Small Cell Lung Cancer Cell Lines” (Pharmaceuticals, 2024)
